Values of other authors as cited in patent US20230112418A1, “COMPOUND AND RADIOACTIVE LABELING COMPOUND” (NIHON MEDI-PHYSICS CO., LTD., priority 2020, published 2023).

Conditions: compared with kidney value one hour after the injection; EJNMMI Res 2012, J Nucl Med 2017; cited from earlier work

O=C([O-])CN(CCN(CC(=O)[O-])Cc1cc(CCC(=O)NCCCCCC(=O)NCCCC[C@H](NC(=O)N[C@@H](CCC(=O)O)C(=O)O)C(=O)O)ccc1[O-])Cc1cc(CCC(=O)O)ccc1[O-].[68Ga+3].[OH3+] [[^68Ga]Ga-PSMA-11]
Accumulation in the kidney (literature): 139 % ID/g
